{"source": "patent US20220218877A1", "about": "“C[…] COMPOSITIONS” ([…], priority 2019, published 2022)", "origin": "cited, not measured here"}
{"conditions": "depending upon the conditions"}
{"molecule": "CCCCCc1cc(O)c2c(c1)OC(C)(C)c1ccc(C)cc1-2", "note": "[cannabinol]", "Solubility in aqueous solutions": "a few micrograms/ml or less"}
{"molecule": "cannabidiol [CBD]", "Solubility in aqueous solutions": "a few micrograms/ml or less"}
{"molecule": "CCCCCc1cc(O)c2c(c1)OC(C)(C)[C@@H]1CCC(C)=C[C@@H]21", "note": "[THC, tetrahydrocannabinol]", "Solubility in aqueous solutions": "a few micrograms/ml or less"}
